Experiment [1] deals with ISC-enriched organoids. The experiment in a line: Primary screen, 384-well 2.5-D organoid differentiation (ENR+CD, 6 days): carbachol-induced lysozyme secretion (LYZ.S). The format is cell-based, murine. The settings on record: ENR+CD, 6 days, FC vs plate median. An excerpt: (§1) High-throughput screening.
Experiment [2] deals with ISC-enriched organoids. The experiment in a line: Primary screen, 384-well 2.5-D organoid differentiation (ENR+CD, 6 days): basal lysozyme secretion (LYZ.NS). The format is cell-based, murine. The settings on record: for Dose.FC.LYZ.NS: ENR+CD, 6 days, FC vs plate median; for Z.LYZ.NS: standard z score of FC.
From the text: as §1

The subject of experiment [3] is ISC-enriched organoids. Briefly: Primary screen, 384-well 2.5-D organoid differentiation (ENR+CD, 6 days, Target Selective Inhibitor Library, vs whole-plate median): ATP (CellTiter-Glo 3D, CTG). The settings on record: for Dose.FC.CTG: ENR+CD, 6 days, FC vs plate median; for Z.CTG: standard z score of FC.

Regarding `Nc1ncnc2n[nH]c(Nc3ccc(F)cc3)c12` [CGP57380], the Dose.FC.LYZ.S is given as 0.096 log 2 fold change in experiment [1] (Dose 0.08 uM), 0.054 log 2 fold change in experiment [1] (Dose 0.40 uM), −0.095 log 2 fold change in experiment [1] (Dose 2.00 uM) and −0.088 log 2 fold change in experiment [1] (Dose 10.00 uM). The Dose.FC.LYZ.NS is recorded as 0.218 log 2 fold change in experiment [2] (Dose 0.08 uM), −0.041 log 2 fold change in experiment [2] (Dose 0.40 uM), −0.055 log 2 fold change in experiment [2] (Dose 2.00 uM) and −0.037 log 2 fold change in experiment [2] (Dose 10.00 uM). The Z.LYZ.NS in experiment [2] (Dose 0.08 uM) is recorded as 1.900; in experiment [2] (Dose 0.40 uM), −0.354; in experiment [2] (Dose 2.00 uM) it was −0.477; in experiment [2] (Dose 10.00 uM) it was −0.321. Moreover, the Dose.FC.CTG in experiment [3] (Dose 0.08 uM) is listed as 0.108 log 2 fold change; in experiment [3] (Dose 0.40 uM) it was −0.293 log 2 fold change; in experiment [3] (Dose 2.00 uM) it was −0.460 log 2 fold change; in experiment [3] (Dose 10.00 uM) it was 0.055 log 2 fold change. The Z.CTG was 0.258 in experiment [3] (Dose 0.08 uM), −0.700 in experiment [3] (Dose 0.40 uM), −1.098 in experiment [3] (Dose 2.00 uM) and 0.132 in experiment [3] (Dose 10.00 uM).

As for `O=c1[nH]c2ccc(Cl)cc2c(N[C@@H]2CN3CCC2CC3)c1-c1nc2ccccc2[nH]1` [CHIR-124], the Dose.FC.LYZ.S is given as −0.267 log 2 fold change in experiment [1] (Dose 0.08 uM), −0.339 log 2 fold change in experiment [1] (Dose 0.40 uM), −0.352 log 2 fold change in experiment [1] (Dose 2.00 uM) and −0.332 log 2 fold change in experiment [1] (Dose 10.00 uM). Besides, the Dose.FC.LYZ.NS in experiment [2] (Dose 0.08 uM) is on record as −0.155 log 2 fold change; in experiment [2] (Dose 0.40 uM), −0.240 log 2 fold change; in experiment [2] (Dose 2.00 uM), −0.220 log 2 fold change; in experiment [2] (Dose 10.00 uM), −0.140 log 2 fold change. Further, the Z.LYZ.NS is −1.352 in experiment [2] (Dose 0.08 uM), −2.090 in experiment [2] (Dose 0.40 uM), −1.916 in experiment [2] (Dose 2.00 uM) and −1.223 in experiment [2] (Dose 10.00 uM). In addition, the Dose.FC.CTG is listed as −0.256 log 2 fold change in experiment [3] (Dose 0.08 uM), −0.853 log 2 fold change in experiment [3] (Dose 0.40 uM), −0.861 log 2 fold change in experiment [3] (Dose 2.00 uM) and −1.555 log 2 fold change in experiment [3] (Dose 10.00 uM). Besides, the Z.CTG in experiment [3] (Dose 0.08 uM) is on record as −0.612; in experiment [3] (Dose 0.40 uM), −2.038; in experiment [3] (Dose 2.00 uM), −2.057; in experiment [3] (Dose 10.00 uM), −3.714.

On to `Cc1[nH]c2ccccc2c1CCNC(=O)c1cccs1` [CK-636], for which the Dose.FC.LYZ.S is given as 0.080 log 2 fold change in experiment [1] (Dose 0.08 uM), −0.013 log 2 fold change in experiment [1] (Dose 0.40 uM), 0.072 log 2 fold change in experiment [1] (Dose 2.00 uM) and −0.103 log 2 fold change in experiment [1] (Dose 10.00 uM). Moreover, the Dose.FC.LYZ.NS is 0.039 log 2 fold change in experiment [2] (Dose 0.08 uM), −0.049 log 2 fold change in experiment [2] (Dose 0.40 uM), −0.066 log 2 fold change in experiment [2] (Dose 2.00 uM) and −0.108 log 2 fold change in experiment [2] (Dose 10.00 uM). Moreover, the Z.LYZ.NS in experiment [2] (Dose 0.08 uM) was 0.336; in experiment [2] (Dose 0.40 uM), −0.427; in experiment [2] (Dose 2.00 uM), −0.573; in experiment [2] (Dose 10.00 uM), −0.944. In addition, the Dose.FC.CTG in experiment [3] (Dose 0.08 uM) was 0.202 log 2 fold change; in experiment [3] (Dose 0.40 uM), −0.004 log 2 fold change; in experiment [3] (Dose 2.00 uM), −0.201 log 2 fold change; in experiment [3] (Dose 10.00 uM), −0.169 log 2 fold change. Further, the Z.CTG is recorded as 0.483 in experiment [3] (Dose 0.08 uM), −0.010 in experiment [3] (Dose 0.40 uM), −0.479 in experiment [3] (Dose 2.00 uM) and −0.404 in experiment [3] (Dose 10.00 uM).

With `C=CC(=O)Nc1cccc(Nc2nc(Nc3ccc(Oc4ccnc(C(=O)NC)c4)cc3)ncc2F)c1` [CNX-774], the Dose.FC.LYZ.S in experiment [1] (Dose 0.08 uM) is listed as 0.014 log 2 fold change; in experiment [1] (Dose 0.40 uM) it was −0.027 log 2 fold change; in experiment [1] (Dose 2.00 uM), 0.082 log 2 fold change; in experiment [1] (Dose 10.00 uM) it was −0.089 log 2 fold change. For the same compound, the Dose.FC.LYZ.NS in experiment [2] (Dose 0.08 uM) is reported as 0.075 log 2 fold change; in experiment [2] (Dose 0.40 uM), −0.008 log 2 fold change; in experiment [2] (Dose 2.00 uM), 0.158 log 2 fold change; in experiment [2] (Dose 10.00 uM), −0.043 log 2 fold change. Besides, the Z.LYZ.NS is reported as 0.655 in experiment [2] (Dose 0.08 uM), −0.067 in experiment [2] (Dose 0.40 uM), 1.378 in experiment [2] (Dose 2.00 uM) and −0.376 in experiment [2] (Dose 10.00 uM). Also, the Dose.FC.CTG in experiment [3] (Dose 0.08 uM) is reported as 0.259 log 2 fold change; in experiment [3] (Dose 0.40 uM) it was 0.177 log 2 fold change; in experiment [3] (Dose 2.00 uM), −0.109 log 2 fold change; in experiment [3] (Dose 10.00 uM), −0.081 log 2 fold change. In addition, the Z.CTG is 0.619 in experiment [3] (Dose 0.08 uM), 0.422 in experiment [3] (Dose 0.40 uM), −0.260 in experiment [3] (Dose 2.00 uM) and −0.194 in experiment [3] (Dose 10.00 uM).

As for `CN(C)C(=O)[C@H](O)[C@H](Cc1ccccc1)NC(=O)c1cc2cc(Cl)ccc2[nH]1` [CP-91149], the Dose.FC.LYZ.S was 0.186 log 2 fold change in experiment [1] (Dose 0.08 uM), 0.055 log 2 fold change in experiment [1] (Dose 0.40 uM), −0.121 log 2 fold change in experiment [1] (Dose 2.00 uM) and −0.097 log 2 fold change in experiment [1] (Dose 10.00 uM). The Dose.FC.LYZ.NS in experiment [2] (Dose 0.08 uM) is 0.177 log 2 fold change; in experiment [2] (Dose 0.40 uM), −0.033 log 2 fold change; in experiment [2] (Dose 2.00 uM) it was 0.028 log 2 fold change; in experiment [2] (Dose 10.00 uM) it was −0.057 log 2 fold change. The Z.LYZ.NS in experiment [2] (Dose 0.08 uM) is listed as 1.538; in experiment [2] (Dose 0.40 uM) it was −0.289; in experiment [2] (Dose 2.00 uM), 0.245; in experiment [2] (Dose 10.00 uM), −0.498. The Dose.FC.CTG in experiment [3] (Dose 0.08 uM) is 0.031 log 2 fold change; in experiment [3] (Dose 0.40 uM), −0.023 log 2 fold change; in experiment [3] (Dose 2.00 uM), −0.098 log 2 fold change; in experiment [3] (Dose 10.00 uM) it was −0.100 log 2 fold change. For the same compound, the Z.CTG in experiment [3] (Dose 0.08 uM) was 0.073; in experiment [3] (Dose 0.40 uM), −0.056; in experiment [3] (Dose 2.00 uM), −0.234; in experiment [3] (Dose 10.00 uM) it was −0.239.

In the case of `O=C(O)c1cc2cccc([N+](=O)[O-])c2[nH]1` [CRT0044876], the Dose.FC.LYZ.S in experiment [1] (Dose 0.08 uM) was −0.002 log 2 fold change; in experiment [1] (Dose 0.40 uM) it was 0.055 log 2 fold change; in experiment [1] (Dose 2.00 uM), 0.014 log 2 fold change; in experiment [1] (Dose 10.00 uM), −0.061 log 2 fold change. Further, the Dose.FC.LYZ.NS came out at 0.016 log 2 fold change in experiment [2] (Dose 0.08 uM), 0.034 log 2 fold change in experiment [2] (Dose 0.40 uM), 0.047 log 2 fold change in experiment [2] (Dose 2.00 uM) and 0.032 log 2 fold change in experiment [2] (Dose 10.00 uM). Also, the Z.LYZ.NS in experiment [2] (Dose 0.08 uM) amounted to 0.135; in experiment [2] (Dose 0.40 uM), 0.298; in experiment [2] (Dose 2.00 uM), 0.408; in experiment [2] (Dose 10.00 uM) it was 0.278. For the same compound, the Dose.FC.CTG in experiment [3] (Dose 0.08 uM) was −0.171 log 2 fold change; in experiment [3] (Dose 0.40 uM), −0.040 log 2 fold change; in experiment [3] (Dose 2.00 uM), −0.081 log 2 fold change; in experiment [3] (Dose 10.00 uM), −0.099 log 2 fold change. Further, the Z.CTG is −0.410 in experiment [3] (Dose 0.08 uM), −0.096 in experiment [3] (Dose 0.40 uM), −0.192 in experiment [3] (Dose 2.00 uM) and −0.237 in experiment [3] (Dose 10.00 uM).

For the origin of these results see US20230398130A1, “METHODS AND COMPOSITIONS FOR DIFFERENTIATING STEM CELLS” (Massachusetts Institute of Technology, priority 2020, published 2023).
